Literature values in US10188772B2, “Drug delivery medical device” (Micell Technologies, Inc., priority 2012, dated 2019).

Biological target: FKBP12 (Homo sapiens, UniProt P62942)
Sequence (P62942 whole entry, species assumed): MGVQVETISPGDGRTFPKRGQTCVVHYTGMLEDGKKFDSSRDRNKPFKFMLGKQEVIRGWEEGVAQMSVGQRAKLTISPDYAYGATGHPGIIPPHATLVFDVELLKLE

SMILES | FKBP12 binding
CC[C@@H]1/C=C(\C)C[C@H](C)C[C@H](OC)[C@H]2O[C@@](O)(C(=O)C(=O)N3CCCC[C@H]3C(=O)O[C@H](/C(C)=C/[C@@H]3CC[C@H](Cl)[C@H](OC)C3)[C@H](C)[C@@H](O)CC1=O)[C@H](C)C[C@@H]2OC [Pimecrolimus] | about 1.2 nM
CO[C@H]1C[C@@H]2CC[C@@H](C)[C@@](O)(O2)C(=O)C(=O)N2CCCC[C@H]2C(=O)O[C@H]([C@H](C)C[C@@H]2CC[C@@H](OCCO)[C@H](OC)C2)CC(=O)[C@H](C)/C=C(\C)[C@@H](O)[C@@H](OC)C(=O)[C@H](C)C[C@H](C)/C=C/C=C/C=C/1C [Everolimus, 40-O-(2-Hydroxyethyl)rapamycin] | 1.8 to 2.6 nM

Second part, the compound after the results:

FKBP12 binding | SMILES
about the same as Sirolimus | CO[C@H]1C[C@@H]2CC[C@@H](C)[C@@](O)(O2)C(=O)C(=O)N2CCCC[C@H]2C(=O)O[C@H]([C@H](C)C[C@@H]2CC[C@@H](OC(=O)C(C)(CO)CO)[C@H](OC)C2)CC(=O)[C@H](C)/C=C(\C)[C@@H](O)[C@@H](OC)C(=O)[C@H](C)C[C@H](C)/C=C/C=C/C=C/1C [Temsirolimus, 42-[3-hydroxy-2-(hydroxymethyl)-2-methylpropanoate]rapamycin]
2.0 to 3.2 nM | CO[C@H]1C[C@@H]2CC[C@@H](C)[C@@](O)(O2)C(=O)C(=O)N2CCCC[C@H]2C(=O)O[C@H]([C@H](C)C[C@@H]2CC[C@H](n3cnnn3)[C@H](OC)C2)CC(=O)[C@H](C)/C=C(\C)[C@@H](O)[C@@H](OC)C(=O)[C@H](C)C[C@H](C)/C=C/C=C/C=C/1C [Zotarolimus]
0.2 to 0.4 nM | C=CC[C@@H]1/C=C(\C)C[C@H](C)C[C@H](OC)[C@H]2O[C@@](O)(C(=O)C(=O)N3CCCC[C@H]3C(=O)O[C@H](/C(C)=C/[C@@H]3CC[C@@H](O)[C@H](OC)C3)[C@H](C)[C@@H](O)CC1=O)[C@H](C)C[C@@H]2OC [Tacrolimus]
